Laboratory results: patent publication US20090118479A1, “Azo compound, ink composition, recording method and colored article” (priority 2005, published 2009)

Assay: solubility of the azo compound (to water)
Assay type: physicochemical
Description: The azo compound of the present invention can be used directly or in formulation with an appropriate carrier or the like, as a colorant for various kinds of articles. […] Said water-based composition is useful as a colorant for various kinds of articles. For example, said water-based composition can dye a material composed of cellulose. In addition, it can dye other materials having carbonamide bonds and widely used for dyeing of leather, textile and paper. Meanwhile, a typical use of the compound of the present invention includes an ink composition prepared by dissolving it in a liquid medium.

Row | solubility | SMILES
1 | ≥ 100 mg/mL | Cc1cc(N=Nc2c(S(=O)(=O)O)cc3c(S(=O)(=O)O)c(N=Nc4c(S(=O)(=O)O)cc5c(S(=O)(=O)O)c(N=Nc6cc(S(=O)(=O)O)c7cc(S(=O)(=O)O)c(N=Nc8ccc([N+](=O)[O-])cc8S(=O)(=O)O)c(O)c7c6N)ccc5c4O)ccc3c2O)c(OCCCS(=O)(=O)O)cc1N=Nc1cc(S(=O)(=O)O)cc2cc(S(=O)(=O)O)cc(O)c12 [compound No. 13]
2 | ≥ 100 mg/mL | Nc1c(N=Nc2ccc3c(O)c(N=Nc4ccc5c(O)c(N=Nc6ccc(N=Nc7ccc(S(=O)(=O)O)cc7)cc6S(=O)(=O)O)c(S(=O)(=O)O)cc5c4S(=O)(=O)O)c(S(=O)(=O)O)cc3c2S(=O)(=O)O)cc(S(=O)(=O)O)c2cc(S(=O)(=O)O)c(N=Nc3ccc(S(=O)(=O)O)cc3[N+](=O)[O-])c(O)c12 [compound No. 2]
